Legend:
L98A CaFADS = target: T1, L98A CaFADS (Corynebacterium ammoniagenes, UniProt Q59263, L98A); experiment: biochemical; format: biochemical
T1 construct: made in house; host or cells: E. coli BL21(DE3)
Experimental: (§1) Reactions were initiated by the addition of ~20 nM of enzyme. After 1 min incubation at 25 °C, the reactions were stopped by boiling the mixtures for 5 min. The composition of flavins in the supernatant was determined using an Alliance HPLC system (Waters, Milford, MA, USA) equipped with a 2707 autosampler and a HSST3 column (4.6 × 150 mm, 3.5 µm, Waters) preceded by a pre-column (4.6 × 20 mm, 3.5 µm, Waters). The chromatography was developed at 1 mL/min with a 6 min isocratic program of methanol 40% (v/v) in 5 mM ammonium acetate (pH 6.0). Detection of flavins was carried out using a 2475 Multi λ fluorescence detector (Waters), excitation wavelength of 470 nm and emission wavelength of 530 nm. […] The flavinic products of the reaction were identified by their retention times and quantified through their corresponding standard curves obtained under the same conditions. Controls containing free flavins in the absence of the enzyme were treated similarly to reaction samples to discard flavin degradation during RFK activity determination. […] In case of inhibition, the experimental data were fitted to a model describing the substrate inhibition of a bi-substrate mechanism. In these situations, errors in apparent Km and kcat (^appKm and ^appkcat) increased with the inhibition constant (Ki) value getting closer to Km^S. Reaction mixtures were evaluated in triplicates, and final results are expressed as the standard error of the fitted value (value ± SE).

L98K CaFADS = target: T2, L98K CaFADS (Corynebacterium ammoniagenes, UniProt Q59263, L98K); experiment: biochemical; format: biochemical
T2 construct: made in house; host or cells: E. coli BL21(DE3)
Experimental: as §1

L98W CaFADS = target: T3, L98W CaFADS (Corynebacterium ammoniagenes, UniProt Q59263, L98W); experiment: biochemical; format: biochemical
T3 construct: made in house; host or cells: E. coli BL21(DE3)
Experimental: as §1

P56A/P58A CaFADS = target: T4, P56A/P58A CaFADS (Corynebacterium ammoniagenes, UniProt Q59263, P56A/P58A); experiment: biochemical; format: biochemical
T4 construct: made in house; host or cells: E. coli BL21(DE3)
Experimental: as §1

P56W CaFADS = target: T5, P56W CaFADS (Corynebacterium ammoniagenes, UniProt Q59263, P56W); experiment: biochemical; format: biochemical
T5 construct: made in house; host or cells: E. coli BL21(DE3)
Experimental: as §1

P58W CaFADS = target: T6, P58W CaFADS (Corynebacterium ammoniagenes, UniProt Q59263, P58W); experiment: biochemical; format: biochemical
T6 construct: made in house; host or cells: E. coli BL21(DE3)
Experimental: as §1

CaFADS variants = experiment: Qualitative detection of RFK, FMNAT and FADpp activities by TLC; format: biochemical, Corynebacterium ammoniagenes; conditions: all variants, 200 nM enzyme, 50 μM flavin, 0.2 mM ATP, 10 mM MgCl2, pH 7.0, 30 min and 2 h
Experimental: RFK and FMNAT activities were qualitatively assayed by the incubation of enzymes with substrates and separation of flavins (substrates and products) from reaction mixtures using TLC on Silica Gel SIL-G-25 plates (20 × 20 cm, thickness 0.25 mm) as previously described. […] Reactions were stopped by boiling the preparations for 5 min. Flavin spots were visualized under UV light.

WT CaFADS = target: T7, WT CaFADS (Corynebacterium ammoniagenes, UniProt Q59263); conditions: saturating ATP, 20 mM PIPES, 0.8 mM MgCl2, pH 7.0, 25 °C, cited from earlier work
T7 construct: made in house; host or cells: Escherichia coli

## Cc1cc2nc3c(=O)[nH]c(=O)nc-3n(C[C@H](O)[C@H](O)[C@H](O)CO)c2cc1C [RF, Riboflavin]
L98A CaFADS
  Ki: 32 ± 15 µM
L98A CaFADS; L98A CaFADS, RF varied, saturating ATP, apparent value, 20 mM PIPES, 0.8 mM MgCl2, pH 7.0, 25 °C
  kcat: 2.3 ± 0.433 s⁻¹
L98K CaFADS
  Ki: 41 ± 13 µM
L98K CaFADS; L98K CaFADS, RF varied, saturating ATP, apparent value, 20 mM PIPES, 0.8 mM MgCl2, pH 7.0, 25 °C
  kcat: 4.13 ± 0.567 s⁻¹
L98W CaFADS
  Ki: 46 ± 20 µM
L98W CaFADS; L98W CaFADS, RF varied, saturating ATP, apparent value, 20 mM PIPES, 0.8 mM MgCl2, pH 7.0, 25 °C
  kcat: 2.33 ± 0.35 s⁻¹
P56A/P58A CaFADS
  Ki: 54 ± 29 µM
P56A/P58A CaFADS; P56A/P58A CaFADS, RF varied, saturating ATP, apparent value, 20 mM PIPES, 0.8 mM MgCl2, pH 7.0, 25 °C
  kcat: 1.3 ± 0.2 s⁻¹
P56W CaFADS
  Ki: 6.5 ± 1.9 µM
P56W CaFADS; P56W CaFADS vs WT
  decrease of Km^RF relative to WT: up to 30 fold
P56W CaFADS; P56W CaFADS, RF varied, saturating ATP, apparent value, 20 mM PIPES, 0.8 mM MgCl2, pH 7.0, 25 °C
  kcat: 0.75 ± 0.083 s⁻¹
P58W CaFADS
  Ki: 39 ± 21 µM
P58W CaFADS; P58W CaFADS, RF varied, saturating ATP, apparent value, 20 mM PIPES, 0.8 mM MgCl2, pH 7.0, 25 °C
  kcat: 1.63 ± 0.317 s⁻¹
CaFADS variants
  RFK activity (transformation of RF), qualitative: All variants kept the RFK activity
WT CaFADS; RF substrate inhibition
  Ki: 4.9 ± 3.9 µM
WT CaFADS; RF varied, apparent value, read-out: Km^RF
  Km: 12 ± 3 µM
WT CaFADS; RF varied, apparent value
  kcat: 6.8 ± 3.33 s⁻¹

— paper PMC6829536 (International Journal of Molecular Sciences, 2019)
